Source: US20070149593A1 (Alcon, Inc., priority 2005, published 2007)

Tested on: FGFR
Experiment: Kinase inhibition in cell-free enzymatic assay, FGFR
Type: biochemical
Conditions: 1 mM ATP

IC50: > 12.5 µM
SMILES: Cc1ccc(F)c(NC(=O)Nc2ccc(-c3cccc4[nH]nc(N)c34)cc2)c1 [RTKi, N-[4-(3-amino-1H-indazol-4-yl)phenyl]-N′-(2-fluoro-5-methylphenyl)urea]
